Source: patent publication US10806735B2, “Use of neutrophil elastase inhibitors in liver disease” (pH Pharma Co., Ltd., priority 2018, dated 2020)
Where two headings read alike, the source gives them in different places.

Key:
[1] = Example 2: body weight of DIO mice, 6 weeks once daily oral dosing; assay type: in vivo; settings: for terminal body weight: after 6 weeks, mean±SEM; for body weight at baseline: baseline before treatment
Description: (§1) Male DIO (diet-induced obesity) mice (C57BLJ6NTac DIO MPF, n=35) were purchased from Taconic Biosciences (Rensselaer, N.Y.). DIO mice were prepared by feeding male C57BL16 mice a high fat diet (HFD, D12492; Research Diets, Inc., New Brunswick, N.J.) from 6-16 weeks of age. A twelve-hour light cycle was maintained throughout study duration. Room temperature was monitored daily and maintained at 22-25° C. DIO mice were housed individually and maintained on the HFD during a 7-day facility acclimation period and throughout the study period. All mice were administered vehicle (5% DMSO/3% ethanol/92% peanut oil) once daily during the acclimation period.
(§2) Compounds were administered once daily in the morning by oral gavage for 6 weeks. Dose volume was maintained at 5 ml/kg throughout the study.
(§3) Whole blood was obtained weekly from fed animals by tail clip for measurement of non-fasted blood glucose (StatStrip; Nova Biomedical, Waltham, Mass.) on day 7, day 14, day 21 and day 35 after first dosing. Body weight was recorded prior to glucose measurement at baseline and weekly thereafter. Oral glucose tolerance tests were performed in fasted mice at baseline (day −1), day 28 and day 42 thereafter. […] At the end of the 6-hour fasting period, mice were challenged with glucose (2 g/kg, 10 ml/kg, by oral gavage). Blood samples were obtained by tail clip at 0, 20, 40, 60, 90 and 120 minutes post-glucose load for assessment of blood glucose by StatStrip. Serum insulin was measured from time 0 blood samples of OGTT using the Mouse/Rat Insulin Kit (MSD #K152BZC; Meso Scale Diagnostics, Rockville, Md.).
(§4) All data are represented as group mean±SEM. Data were analyzed using JMP (SAS software). All normalizations were calculated using terminal body weight. […] Treatment effects compared to vehicle were determined using Oneway ANOVA (*, p<0.05) followed by Dunnett's test where appropriate.

DIO mice [2] = experiment: Example 2: blood glucose (fasted and fed) in DIO mice; assay type: in vivo; settings: for fed glucose on day 35: vehicle 134.5±6.9; for fasted blood glucose at study start: baseline before treatment
Description: as §1, §2, §3, §4

DIO mice [3] = experiment: Example 2: fasted serum insulin in DIO mice; assay type: in vivo; settings: for fasted serum insulin on day 42: vehicle 8.2±1.5; for fasted serum insulin at baseline: baseline before treatment
Description: as §1, §2, §3, §4

DIO mice [4] = experiment: Example 2: terminal liver and epididymal fat weights in DIO mice; assay type: in vivo; settings: 6 weeks; for epididymal fat weight (% body weight): vehicle 3.4±0.3; for liver weight (% body weight): vehicle 5.6±0.2
Description: Animals were terminated using CO2 inhalation and induction of pneumothorax. Four mice from each treatment group were sacrificed at 0.5 hr post dose and four were sacrificed at 4 hours post dose. […] Organ weights (liver, epididymal fat) were recorded. All data are represented as group mean±SEM. Data were analyzed using JMP (SAS software). All normalizations were calculated using terminal body weight. All assigned animals completed the study. […] Treatment effects compared to vehicle were determined using Oneway ANOVA (*, p<0.05) followed by Dunnett's test where appropriate.

[5] = Solubility and hygroscopicity of the drug substance; assay type: physicochemical
DIO mice [6] = experiment: Example 2: oral glucose tolerance test (OGTT) in DIO mice; assay type: in vivo; settings: for decrease of glucose AUC on day 42 compared to baseline: vehicle 12.6±10.3%; for OGTT glucose AUC on day 42: vehicle 27.8±1.2; for OGTT glucose AUC on day 28: vehicle 27.9±1.1; for OGTT glucose AUC at baseline: day −1 before treatment
Description: as §1, §2, §3, §4

[7] = Example 3: body weight of DIO mice, 4 weeks BID oral dosing; assay type: in vivo; settings: for body weight growth rate / body weight at the end of the study: 4 weeks; for body weight growth rate: vehicle 9.2±2.0%; for body weight at the end of the study: vehicle 48.8±0.9; for body weight at baseline: baseline before treatment
Description: (§5) Body weight was recorded prior to glucose measurement at baseline and weekly thereafter. All data are represented as group mean±SEM. Data were analyzed using Prism 7.0 (Graphpad software). All normalizations were calculated using terminal body weight. All assigned animals completed the study. […] Treatment effects compared to vehicle were determined using Oneway ANOVA (*, p<0.05; *, P<0.01) followed by Dunnett's test where appropriate.

DIO mice [8] = experiment: Example 3: blood glucose in DIO mice; assay type: in vivo; settings: for blood glucose at day 28: vehicle 143.0±7.1; for fasted blood glucose at study start: baseline before treatment
Description: as §5, with “thereafter. […]” for “thereafter.”

DIO mice [9] = experiment: Example 3: oral glucose tolerance test (OGTT) in DIO mice; assay type: in vivo; settings: for OGTT glucose AUC on day 28: vehicle 25.5±1.4; for OGTT glucose AUC at baseline: day −1 before treatment
Description: as §5, with “All” for “Body weight was recorded prior to glucose measurement at baseline and weekly thereafter. All”

DIO mice [10] = experiment: Example 3: fasted serum insulin in DIO mice; assay type: in vivo; settings: for fasted serum insulin on day 28: vehicle 7.7±1.6; for fasted serum insulin at baseline: baseline before treatment
Description: as §5, with “All” for “Body weight was recorded prior to glucose measurement at baseline and weekly thereafter. All”

[11] = Example 4: Phase 1 single-ascending dose study in healthy subjects, pharmacokinetics; assay type: in vivo, human; settings: single doses 1 to 40 mg
[12] = healthy subjects, cited from earlier work
[13] = non-CF BE patients, 28 days, cited from earlier work
[14] = Example 4: Phase 1 single-ascending dose study in healthy subjects, safety; settings: single doses 1 to 40 mg
Description: Following Screening, subjects received single doses of study drug and were monitored during an in-clinic period and an out-patient follow-up period. Subjects were confined to the study site for Study Days −2 through 7 to collect PK and safety assessments. Following discharge from the study site on Study Day 7, subjects returned to the study site on Study Days 14, 21, 28, and 35.

HFD-fed mice = settings: cited from earlier work

CN(CCOc1ccc(CC2SC(=O)NC2=O)cc1)c1ccccn1 (stereo not drawn) [rosiglitazone, reference compound]
terminal body weight ([1]; 30 mg/kg/day PO): 55.0 ± 1.4 g | body weight at baseline ([1]; group assigned to 30 mg/kg/day): 42.8 ± 1.0 g | decrease of fasting glucose compared to baseline (DIO mice [2]; 30 mg/kg/day PO, 6 weeks): 23% | fasting glucose after 6 weeks of treatment (DIO mice [2]; 30 mg/kg/day PO, 6 weeks): 125.8 ± 4.8 mg/dL | fed glucose on day 35 (DIO mice [2]; 30 mg/kg/day PO): 125.5 ± 4.5 mg/dL | fasted blood glucose at study start (DIO mice [2]; group assigned to 30 mg/kg/day): 164.0 ± 4.0 mg/dL | fasted serum insulin on day 42 (DIO mice [3]; 30 mg/kg/day PO): 1.3 ± 0.1 ng/mL | fasted serum insulin at baseline (DIO mice [3]; group assigned to 30 mg/kg/day): 5.2 ± 1.1 ng/mL | epididymal fat weight (% body weight) (DIO mice [4]; 30 mg/kg/day PO): 3.7±0.2% | liver weight (% body weight) (DIO mice [4]; 30 mg/kg/day PO): 5.0±0.2%

CC1=C(C#N)[C@@H](c2ccc(C#N)cc2S(C)(=O)=O)N(C)C(=O)N1c1cccc(C(F)(F)F)c1 [Compound 1, (4S)-4-[4-cyano-2-(methylsulfonyl)phenyl]-3,6-dimethyl-2-oxo-1-[3-(trifluoromethyl)phenyl]-1,2,3,4-tetrahydropyrimidine-5-carbonitrile]
solubility in acetone ([5]; acetone): soluble | solubility in ethanol ([5]; ethanol): very slightly soluble | hygroscopicity ([5]; normal storage conditions): not hygroscopic | solubility in water ([5]; water): practically insoluble | terminal body weight ([1]; 3 mg/kg/day PO): 49.8 ± 0.9 g | growth rate of body weight ([1]; 15 mg/kg/day PO, 6 weeks, vehicle 14±1.8%): 6.9±1.8% | terminal body weight ([1]; 15 mg/kg/day PO): 47.3 ± 1.1 g | body weight at baseline ([1]; group assigned to 3 mg/kg/day): 42.8 ± 1.1 g | body weight at baseline ([1]; group assigned to 15 mg/kg/day): 42.8 ± 1.0 g | fed glucose on day 35 (DIO mice [2]; 3 mg/kg/day PO): 128.3 ± 3.4 mg/dL | decrease of fasting glucose from baseline (DIO mice [2]; 15 mg/kg/day PO, 6 weeks): 11% | fed glucose on day 35 (DIO mice [2]; 15 mg/kg/day PO): 134.9 ± 4.7 mg/dL | fasted blood glucose at study start (DIO mice [2]; group assigned to 3 mg/kg/day): 160.3 ± 5.7 mg/dL | fasted blood glucose at study start (DIO mice [2]; group assigned to 15 mg/kg/day): 164.6 ± 7.3 mg/dL | decrease of glucose AUC on day 42 compared to baseline (DIO mice [6]; 3 mg/kg PO): 20.0±4.5% | OGTT glucose AUC on day 42 (DIO mice [6]; 3 mg/kg/day PO): 28.6±0.7 mg/dL/min×10^3 | OGTT glucose AUC on day 28 (DIO mice [6]; 3 mg/kg/day PO): 24.0±0.9 mg/dL·min×10^3 | decrease of glucose AUC on day 42 compared to baseline (DIO mice [6]; 15 mg/kg PO): −21.9±5.0% | OGTT glucose AUC on day 42 (DIO mice [6]; 15 mg/kg/day PO): 26.3±1.1 mg/dL/min×10^3 | OGTT glucose AUC on day 28 (DIO mice [6]; 15 mg/kg/day PO): 22.7±0.7 mg/dL·min×10^3 | OGTT glucose AUC at baseline (DIO mice [6]; group assigned to 3 mg/kg/day): 36.3±2.0 mg/dL·min×10^3 | OGTT glucose AUC at baseline (DIO mice [6]; group assigned to 15 mg/kg/day): 34.4±2.2 mg/dL·min×10^3 | fasted serum insulin on day 42 (DIO mice [3]; 3 mg/kg/day PO (low dose)): 11.8 ± 1.3 ng/mL | fasted serum insulin on day 42 (DIO mice [3]; 15 mg/kg/day PO (higher dose)): 5.9 ± 1.5 ng/mL | fasted serum insulin at baseline (DIO mice [3]; group assigned to 3 mg/kg/day): 3.5 ± 0.5 ng/mL | fasted serum insulin at baseline (DIO mice [3]; group assigned to 15 mg/kg/day): 5.4 ± 1.0 ng/mL | epididymal fat weight (% body weight) (DIO mice [4]; 3 mg/kg/day PO): 3.1±0.3% | liver weight (% body weight) (DIO mice [4]; 3 mg/kg/day PO): 6.8±0.3% | epididymal fat weight (% body weight) (DIO mice [4]; 15 mg/kg/day PO): 3.5±0.2% | liver weight (% body weight) (DIO mice [4]; 15 mg/kg/day PO): 6.4±0.2% | body weight growth rate ([7]; 15 mg/kg BID PO): 5.9±1.6% | body weight at the end of the study ([7]; 15 mg/kg BID PO): 47.5 ± 1.3 g | body weight growth rate ([7]; 30 mg/kg BID PO): 2.8±2.3% | body weight at the end of the study ([7]; 30 mg/kg BID PO): 46.0 ± 1.2 g | body weight at baseline ([7]; group assigned to 15 mg/kg BID): 44.8 ± 0.7 g | body weight at baseline ([7]; group assigned to 30 mg/kg BID): 44.8 ± 0.7 g | blood glucose at day 28 (DIO mice [8]; 15 mg/kg BID PO): 151.9 ± 6.1 mg/dL | blood glucose at day 28 (DIO mice [8]; 30 mg/kg BID PO): 137.3 ± 4.1 mg/dL | fasted blood glucose at study start (DIO mice [8]; group assigned to 15 mg/kg BID): 185.1 ± 8.3 mg/dL | fasted blood glucose at study start (DIO mice [8]; group assigned to 30 mg/kg BID): 180.1 ± 7.0 mg/dL | OGTT glucose AUC on day 28 (DIO mice [9]; 15 mg/kg BID PO): 24.7±1.9 mg/dL·min×10^3 | OGTT glucose AUC on day 28 (DIO mice [9]; 30 mg/kg BID PO): 22.4±1.0 mg/dL·min×10^3 | OGTT glucose AUC at baseline (DIO mice [9]; group assigned to 15 mg/kg BID): 33.8±0.9 mg/dL-min×10^3 | OGTT glucose AUC at baseline (DIO mice [9]; group assigned to 30 mg/kg BID): 32.8±1.8 mg/dL-min×10^3 | fasted serum insulin on day 28 (DIO mice [10]; 15 mg/kg BID PO): 5.8 ± 1.4 ng/mL | fasted serum insulin on day 28 (DIO mice [10]; 30 mg/kg BID PO): 4.0 ± 0.3 ng/mL | fasted serum insulin at baseline (DIO mice [10]; group assigned to 15 mg/kg BID): 7.0 ± 1.1 ng/mL | fasted serum insulin at baseline (DIO mice [10]; group assigned to 30 mg/kg BID): 4.9 ± 0.6 ng/mL | exposure (AUC and Cmax) versus dose [11]: proportional increases in exposure (AUC and Cmax) with dose | safety and tolerability ([12]; single and repeated doses up to 1 mg for up to 14 days): safe and well tolerated | serious adverse events (SAEs) ([12]; three Phase 1 studies): no serious AEs (SAEs) were reported | study drug-induced laboratory or ECG abnormalities ([12]; three Phase 1 studies): No safety signals | safety and tolerability ([13]; 1.0 mg oral IR tablet): generally safe and well tolerated | SAEs attributed to the drug ([13]; 1.0 mg oral): no SAEs were attributed by the investigator to the drug | study drug-induced laboratory parameter or ECG effects ([13]; 1.0 mg oral): No safety signals | AE rate compared with placebo subjects [14]: somewhat lower than that in the control (placebo) subjects | effects on laboratory safety evaluations (clinical chemistry and hematology) [14]: no clear effects | serious AEs, discontinuations, deaths [14]: no serious AEs and no discontinuations or deaths | occurrence of headache ([14]; 36 subjects on drug): only observed in one Compound 1 subject

CC(C)[C@@H]1C(=O)N(S(C)(=O)=O)[C@@H]2CCN(C(=O)/C=C/CN3CCCCC3)[C@H]21.Cl [GW311616A]
glucose tolerance (HFD-fed mice; HFD mice (Talukdar 2012)): improved glucose tolerance | insulin sensitivity in glucose clamp/tracer studies (HFD-fed mice; HFD mice (Talukdar 2012)): increased peripheral and hepatic insulin sensitivity | insulin resistance and body weight gain (HFD-fed mice; HFD-fed mice (Mansuy-Aubert 2013)): reversed insulin resistance and body weight gain
